# Data reported in article PMC6013247, “Preclinical characterization of INCB053914, a novel pan-PIM kinase inhibitor, alone and in combination with anticancer agents, in models of hematologic malignancies” (PLoS ONE, 2018).
# Experiments:
# PIM2 = PIM2 (Homo sapiens, UniProt Q9P1W9); experiment: PIM2 time-resolved fluorescence resonance energy transfer assay; type: biochemical; settings: 1 mM ATP; read-out: Mean (SD) IC50
# Experimental: The activity of INCB053914 against the PIM1 and PIM3 kinases was measured using AlphaScreen® assays (PerkinElmer, Inc., Shelton, Connecticut), and against PIM2 kinase using a time-resolved fluorescence resonance energy transfer assay (see Supporting Information, S1 File)
# Time-resolved fluorescence resonance energy transfer assay. Reactions (20 μl) were carried out in white 384-well polystyrene plates dotted with 0.8 μl of the compound in dimethylsulfoxide in the assay buffer (50 mM Tris, pH 7.5, 0.01% Tween-20, 5 mM MgCl2, 0.01% BSA, 5 mM dithiothreitol) containing 0.05 μM fluorescein-labeled CREBtide peptide substrate (Invitrogen), 1 mM ATP, and 1 nM PIM2 (Invitrogen). After 2 hours at 25°C, reactions were stopped with 10 μl RT-FRET dilution buffer (Invitrogen) supplemented with 30 mM EDTA and 1.5 nM LanthaScreen Tb-CREB pSer133 antibody (Invitrogen). After a 30-minute incubation at room temperature, plates were read on a PHERAstar FS plate reader (BMG Labtech).
# CHEK1 = CHEK1 (Homo sapiens, UniProt O14757); experiment: Kinase selectivity panel; type: biochemical; settings: [ATP] = 1 mM
# CHEK2 = CHEK2 (Homo sapiens, UniProt O96017); experiment: Kinase selectivity panel; type: biochemical; settings: [ATP] = 1 mM
# CLK3 = CLK3 (Homo sapiens, UniProt P49761); experiment: Kinase selectivity panel; type: biochemical; settings: [ATP] = 1 mM
# DYRK2 = DYRK2 (Homo sapiens, UniProt Q92630); experiment: Kinase selectivity panel; type: biochemical; settings: [ATP] = 1 mM
# EGFR = EGFR (Homo sapiens, UniProt P00533); experiment: Kinase selectivity panel; type: biochemical; settings: [ATP] = 1 mM
# HIPK3 = HIPK3 (Homo sapiens, UniProt Q9H422); experiment: Kinase selectivity panel; type: biochemical; settings: [ATP] = 1 mM
# IGF1R = IGF1R (Homo sapiens, UniProt P08069); experiment: Kinase selectivity panel; type: biochemical; settings: [ATP] = 1 mM
# IKKA = IKKA (Homo sapiens, UniProt O15111); experiment: Kinase selectivity panel; type: biochemical; settings: [ATP] = 1 mM
# JNK1 = JNK1 (Homo sapiens, UniProt P45983); experiment: Kinase selectivity panel; type: biochemical; settings: [ATP] = 1 mM
# KDR = KDR (Homo sapiens, UniProt P35968); experiment: Kinase selectivity panel; type: biochemical; settings: [ATP] = 1 mM
# KIT = KIT (Homo sapiens, UniProt P10721); experiment: Kinase selectivity panel; type: biochemical; settings: [ATP] = 1 mM
# MAP3K8 = MAP3K8 (Homo sapiens, UniProt P41279); experiment: Kinase selectivity panel; type: biochemical; settings: [ATP] = 1 mM
# RET = RET (Homo sapiens, UniProt P07949); experiment: Kinase selectivity panel; type: biochemical; settings: [ATP] = 1 mM
# ROCK1 = ROCK1 (Homo sapiens, UniProt Q13464); experiment: Kinase selectivity panel; type: biochemical; settings: [ATP] = 1 mM
# SGK1 = SGK1 (Homo sapiens, UniProt O00141); experiment: Kinase selectivity panel; type: biochemical; settings: [ATP] = 1 mM
# ZAP70 = ZAP70 (Homo sapiens, UniProt P43403); experiment: Kinase selectivity panel; type: biochemical; settings: [ATP] = 1 mM
# MM cell lines = experiment: Cell proliferation assay, all MM cell lines tested; type: cell-based; settings: read-out: mean GI50 values, range over all MM cell lines tested
# Experimental: The antiproliferative effects of INCB053914 on hematologic tumor cells were investigated using assays described in the Supporting Information (S2 File).
# Cell proliferation assays. […] After 3 to 4 days, [^3H]-thymidine (1 μCi/well) (PerkinElmer) in PBS (10 μl) was added to the cell culture for an additional 12 hours. The incorporated radioactivity was separated by filtration with water through GF/B filters (Packard Bioscience, Meriden, Connecticut) and measured by liquid scintillation counting with a TopCount (Packard Bioscience).
# PIM2 expression in PBMCs = PIM2 expression in PBMCs from whole blood of patients with AML treated ex vivo; type: cell-based; settings: Homo sapiens, PBMC, read-out: EC50 for increased PIM2 expression, whole blood treated overnight ex vivo
# Experimental: The effects of INCB053914 on pBAD, pp70S6K, and p4E-BP1 levels and on the expression of PIM isozymes also were assessed ex vivo in primary bone marrow blasts (Stem Cell and Xenograft Core, University of Pennsylvania, Philadelphia, Pennsylvania) or in peripheral blood mononuclear cells (PBMCs) derived from whole blood samples obtained with informed written consent from adult patients with AML enrolled in an ongoing phase 1/2 dose-escalation trial, which was conducted in accordance with the study protocol approved by the respective institutional review boards or independent ethics committees. Only samples initially containing >90% viable cells were used (assessed by Trypan Blue staining). Immediately after thawing, the blasts were cultured in RPMI + 10% FBS with INCB053914 for 2 hours at 37°C, before lysis. For determinations of PIM2 expression in PBMCs, whole blood samples were treated overnight with increasing concentrations of INCB053914; total PBMCs were isolated by Ficoll-Paque density gradient centrifugation before lysis. The levels of PIM isozymes and phosphoproteins in cell lysates were detected by Western blotting using the same primary antibodies as above.
# [1] = tested on: pBAD, pSTAT3 and MYC in INA-6 (MM) tumors; experiment: pBAD, pSTAT3 and MYC levels in INA-6 (MM) tumors; type: in vivo, mouse; settings: INA-6 (MM) tumors in mice
# Experimental: The PI3Kδ inhibitor INCB050465 (10 mg/kg once a day orally) was evaluated in combination with INCB053914 (30 mg/kg once a day orally) in mice bearing Pfeiffer (DLBCL) xenografts, a model sensitive to PI3Kδ inhibition (eight mice/group). Cytarabine was administered via intraperitoneal injection at a standard dose of 20 mg/kg twice a week, in combination with oral INCB053914 at a submaximally efficacious dose of 20 mg/kg twice a day for 12 days in mice bearing human KG-1 AML xenografts, a cytarabine-sensitive model (eight mice/group). The oral JAK1-selective inhibitor itacitinib (60 mg/kg twice a day orally) was assessed in combination with INCB053914 (100 mg/kg twice a day orally) after 8 days of administration to SCID mice bearing INA-6 (MM) xenografts (eight mice/group), a model sensitive to JAK inhibition.
# INA-6 cells = experiment: STAT3(Y705) and PIM kinase substrate phosphorylation in INA-6 cells in culture; type: cell-based; settings: INA-6 cells treated for 24 hours in culture
# Experimental: Fig S1. Effects of INCB053914 on STAT3(Y705) and PIM kinase substrate phosphorylation in INA-6 cells treated for 24 hours in culture.
# Chain of IKKA (O15111 whole entry): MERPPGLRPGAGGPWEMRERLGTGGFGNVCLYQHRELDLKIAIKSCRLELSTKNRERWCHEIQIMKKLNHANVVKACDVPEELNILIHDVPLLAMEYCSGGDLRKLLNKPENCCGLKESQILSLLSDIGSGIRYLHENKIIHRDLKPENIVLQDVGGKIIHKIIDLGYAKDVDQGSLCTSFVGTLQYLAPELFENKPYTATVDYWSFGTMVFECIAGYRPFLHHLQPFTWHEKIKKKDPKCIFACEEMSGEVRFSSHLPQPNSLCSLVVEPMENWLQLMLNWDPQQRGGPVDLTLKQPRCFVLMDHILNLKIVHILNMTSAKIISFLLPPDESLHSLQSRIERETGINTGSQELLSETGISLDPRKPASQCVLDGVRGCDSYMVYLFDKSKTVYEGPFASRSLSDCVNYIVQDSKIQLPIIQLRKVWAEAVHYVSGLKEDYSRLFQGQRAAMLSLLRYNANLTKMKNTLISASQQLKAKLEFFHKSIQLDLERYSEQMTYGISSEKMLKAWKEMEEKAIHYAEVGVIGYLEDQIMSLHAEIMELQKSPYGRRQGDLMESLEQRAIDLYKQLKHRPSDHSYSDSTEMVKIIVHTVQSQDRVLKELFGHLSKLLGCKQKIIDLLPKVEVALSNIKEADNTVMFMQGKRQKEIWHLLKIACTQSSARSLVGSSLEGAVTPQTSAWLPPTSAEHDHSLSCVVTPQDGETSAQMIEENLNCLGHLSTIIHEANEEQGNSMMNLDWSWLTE
# Chain of IGF1R (P08069 31-1367): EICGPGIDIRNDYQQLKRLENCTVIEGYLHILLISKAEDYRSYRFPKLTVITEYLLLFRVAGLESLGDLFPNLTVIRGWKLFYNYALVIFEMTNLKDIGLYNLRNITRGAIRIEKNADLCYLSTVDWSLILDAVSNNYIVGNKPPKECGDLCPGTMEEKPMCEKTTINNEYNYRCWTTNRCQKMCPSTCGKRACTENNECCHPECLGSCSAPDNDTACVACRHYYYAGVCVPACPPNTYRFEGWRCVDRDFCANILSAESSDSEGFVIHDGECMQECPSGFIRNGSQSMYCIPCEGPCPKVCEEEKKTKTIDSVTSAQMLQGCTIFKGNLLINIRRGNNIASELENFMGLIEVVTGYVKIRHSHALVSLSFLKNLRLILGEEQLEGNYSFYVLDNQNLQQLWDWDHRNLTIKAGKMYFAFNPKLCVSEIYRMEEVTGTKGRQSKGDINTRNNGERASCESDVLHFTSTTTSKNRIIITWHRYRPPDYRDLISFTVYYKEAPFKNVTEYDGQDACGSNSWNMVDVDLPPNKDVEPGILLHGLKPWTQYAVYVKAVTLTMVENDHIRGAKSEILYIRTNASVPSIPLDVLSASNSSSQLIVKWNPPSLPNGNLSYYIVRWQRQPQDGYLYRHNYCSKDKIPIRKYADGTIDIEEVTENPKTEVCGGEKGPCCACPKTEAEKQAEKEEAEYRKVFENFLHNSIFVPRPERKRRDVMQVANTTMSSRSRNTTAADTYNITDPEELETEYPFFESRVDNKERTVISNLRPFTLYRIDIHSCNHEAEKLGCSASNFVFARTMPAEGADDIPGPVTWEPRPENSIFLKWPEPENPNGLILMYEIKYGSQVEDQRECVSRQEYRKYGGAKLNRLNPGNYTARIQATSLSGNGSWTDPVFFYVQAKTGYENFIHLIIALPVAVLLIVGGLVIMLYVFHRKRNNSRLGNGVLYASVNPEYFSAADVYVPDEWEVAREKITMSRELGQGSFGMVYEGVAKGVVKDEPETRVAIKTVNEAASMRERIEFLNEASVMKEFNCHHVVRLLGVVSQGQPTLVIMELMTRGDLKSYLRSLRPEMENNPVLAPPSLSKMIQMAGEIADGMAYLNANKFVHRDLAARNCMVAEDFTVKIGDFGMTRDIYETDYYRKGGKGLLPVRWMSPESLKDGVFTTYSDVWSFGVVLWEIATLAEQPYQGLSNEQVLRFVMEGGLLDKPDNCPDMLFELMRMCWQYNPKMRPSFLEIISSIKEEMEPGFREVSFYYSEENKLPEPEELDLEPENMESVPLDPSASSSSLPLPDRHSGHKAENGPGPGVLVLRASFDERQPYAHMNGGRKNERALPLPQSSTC
# Chain of SGK1 (O00141 whole entry, species assumed): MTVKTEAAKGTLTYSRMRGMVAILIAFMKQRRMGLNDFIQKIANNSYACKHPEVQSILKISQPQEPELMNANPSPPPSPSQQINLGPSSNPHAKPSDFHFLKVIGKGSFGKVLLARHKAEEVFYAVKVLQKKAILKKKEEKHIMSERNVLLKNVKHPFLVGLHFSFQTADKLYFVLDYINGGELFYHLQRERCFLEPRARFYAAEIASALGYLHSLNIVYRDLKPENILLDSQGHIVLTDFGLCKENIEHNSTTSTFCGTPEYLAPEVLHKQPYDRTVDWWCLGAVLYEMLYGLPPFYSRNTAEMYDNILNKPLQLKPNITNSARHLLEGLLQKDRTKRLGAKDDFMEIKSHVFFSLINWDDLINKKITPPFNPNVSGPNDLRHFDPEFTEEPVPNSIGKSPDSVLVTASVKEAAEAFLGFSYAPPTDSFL
# Chain of PIM2 (Q9P1W9 whole entry): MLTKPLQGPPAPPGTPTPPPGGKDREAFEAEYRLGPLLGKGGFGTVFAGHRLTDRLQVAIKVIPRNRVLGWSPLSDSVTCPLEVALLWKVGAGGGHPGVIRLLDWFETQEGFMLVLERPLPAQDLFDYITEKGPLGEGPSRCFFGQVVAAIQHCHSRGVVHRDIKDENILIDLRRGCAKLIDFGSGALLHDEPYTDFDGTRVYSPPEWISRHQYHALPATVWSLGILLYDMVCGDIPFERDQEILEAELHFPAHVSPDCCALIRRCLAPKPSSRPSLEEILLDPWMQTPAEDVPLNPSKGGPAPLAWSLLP
# Chain of EGFR (P00533 25-1210): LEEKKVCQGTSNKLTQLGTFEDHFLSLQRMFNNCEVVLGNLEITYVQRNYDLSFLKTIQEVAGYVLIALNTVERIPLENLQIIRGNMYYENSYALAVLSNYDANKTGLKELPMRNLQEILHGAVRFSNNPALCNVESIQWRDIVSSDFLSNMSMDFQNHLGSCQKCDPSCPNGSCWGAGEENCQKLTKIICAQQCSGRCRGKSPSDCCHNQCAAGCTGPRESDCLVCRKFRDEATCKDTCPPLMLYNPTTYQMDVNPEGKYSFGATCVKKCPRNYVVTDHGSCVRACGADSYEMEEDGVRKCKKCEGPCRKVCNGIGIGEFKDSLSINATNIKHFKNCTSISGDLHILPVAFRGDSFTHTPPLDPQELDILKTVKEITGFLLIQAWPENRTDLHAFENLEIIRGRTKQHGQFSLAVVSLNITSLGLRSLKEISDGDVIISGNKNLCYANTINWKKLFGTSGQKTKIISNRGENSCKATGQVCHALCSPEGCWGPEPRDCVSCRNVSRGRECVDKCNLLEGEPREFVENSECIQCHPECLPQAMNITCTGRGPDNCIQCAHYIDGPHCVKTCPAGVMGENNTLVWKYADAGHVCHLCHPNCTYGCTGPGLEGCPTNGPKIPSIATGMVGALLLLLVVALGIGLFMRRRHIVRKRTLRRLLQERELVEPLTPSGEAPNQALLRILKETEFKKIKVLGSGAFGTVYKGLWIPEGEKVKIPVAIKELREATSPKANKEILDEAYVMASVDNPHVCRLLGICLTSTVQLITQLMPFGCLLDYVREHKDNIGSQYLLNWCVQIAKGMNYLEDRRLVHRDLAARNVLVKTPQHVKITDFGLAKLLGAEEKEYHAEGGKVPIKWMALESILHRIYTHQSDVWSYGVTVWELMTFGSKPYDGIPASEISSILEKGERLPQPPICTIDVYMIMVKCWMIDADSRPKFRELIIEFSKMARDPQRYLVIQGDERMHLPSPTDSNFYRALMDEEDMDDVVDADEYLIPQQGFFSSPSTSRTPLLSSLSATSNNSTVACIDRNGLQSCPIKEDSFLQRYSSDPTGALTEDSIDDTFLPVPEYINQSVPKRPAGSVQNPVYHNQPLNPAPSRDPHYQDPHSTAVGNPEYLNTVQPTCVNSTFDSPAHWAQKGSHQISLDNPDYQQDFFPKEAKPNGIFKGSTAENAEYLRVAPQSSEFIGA
# Chain of MAP3K8 (P41279 whole entry): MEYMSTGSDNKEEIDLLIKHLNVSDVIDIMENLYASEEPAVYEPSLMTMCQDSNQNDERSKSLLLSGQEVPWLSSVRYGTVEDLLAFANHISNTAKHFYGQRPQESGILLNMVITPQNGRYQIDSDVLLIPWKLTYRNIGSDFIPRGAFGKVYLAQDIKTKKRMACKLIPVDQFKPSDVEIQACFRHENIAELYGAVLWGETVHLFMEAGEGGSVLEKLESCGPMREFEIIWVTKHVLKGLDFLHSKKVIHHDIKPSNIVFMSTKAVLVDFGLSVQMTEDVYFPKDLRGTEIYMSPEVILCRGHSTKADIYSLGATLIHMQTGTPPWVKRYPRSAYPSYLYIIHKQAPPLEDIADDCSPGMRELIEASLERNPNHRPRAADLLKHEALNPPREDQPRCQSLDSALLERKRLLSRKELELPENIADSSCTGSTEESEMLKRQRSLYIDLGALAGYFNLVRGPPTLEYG
# Chain of CHEK2 (O96017 whole entry): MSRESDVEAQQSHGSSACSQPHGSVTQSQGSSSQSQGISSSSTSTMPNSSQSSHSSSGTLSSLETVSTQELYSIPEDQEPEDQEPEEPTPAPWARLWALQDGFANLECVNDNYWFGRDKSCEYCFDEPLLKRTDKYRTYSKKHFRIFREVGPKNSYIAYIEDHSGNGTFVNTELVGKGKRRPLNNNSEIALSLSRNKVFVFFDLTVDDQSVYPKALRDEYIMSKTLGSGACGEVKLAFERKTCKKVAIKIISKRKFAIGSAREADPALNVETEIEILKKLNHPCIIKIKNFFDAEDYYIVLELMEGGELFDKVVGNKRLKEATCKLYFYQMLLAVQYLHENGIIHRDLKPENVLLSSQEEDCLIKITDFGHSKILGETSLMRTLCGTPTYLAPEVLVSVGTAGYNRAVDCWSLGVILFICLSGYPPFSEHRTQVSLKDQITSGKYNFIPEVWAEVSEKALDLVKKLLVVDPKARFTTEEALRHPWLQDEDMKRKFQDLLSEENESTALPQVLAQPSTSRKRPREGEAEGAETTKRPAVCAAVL
structure (smiles),measurement,setting,value
"C[C@H]1CN(c2c(NC(=O)c3ccc(F)c(-c4c(F)cccc4F)n3)cnc3c2CC[C@H]3O)C[C@@H](N)[C@@H]1O.O=P(O)(O)O [INCB053914, N-((R)-4-((3R,4R,5S)-3-amino-4-hydroxy-5-methylpiperidin-1-yl)-7-hydroxy-6,7-dihydro-5H-cyclopenta[b]pyridin-3-yl)-6-(2,6-difluorophenyl)-5-fluoropicolinamide phosphate]",IC50,PIM2,0.03 µM
same,IC50,CHEK1,> 20 µM
same,IC50,CHEK2,> 20 µM
same,IC50,CLK3,> 20 µM
same,IC50,DYRK2,> 20 µM
same,IC50,EGFR,> 20 µM
same,IC50,HIPK3,> 20 µM
same,IC50,IGF1R,> 20 µM
same,IC50,IKKA,> 20 µM
same,IC50,JNK1,> 20 µM
same,IC50,KDR,> 20 µM
same,IC50,KIT,> 20 µM
same,IC50,MAP3K8,> 20 µM
same,IC50,RET,> 20 µM
same,IC50,ROCK1,> 20 µM
same,IC50,SGK1,> 20 µM
same,IC50,ZAP70,> 20 µM
same,GI50,MM cell lines,0.0132 to 0.23 µM
same,EC50,PIM2 expression in PBMCs,0.116 µM
same,MYC levels,[1],decreased MYC levels
same,level of pBAD,[1],decrease
same,pSTAT3(Y705) levels,INA-6 cells,negligible effects
